Broadly, the IC50 is the concentration that gives 50% inhibition. Low readings indicate inhibition by little substance, high ones a need for much substance. A word on the Kd: it is the free concentration of one partner at which half of the binding sites on the other are occupied at equilibrium, for simple one-to-one binding.

In the first experiment the target is T1, human HYPDH (Homo sapiens (Human), UniProt Q9UF12). The experiment is described as follows: HYPDH inhibition activity assay (inhibitor pre-incubated 5 min, reaction started with Hyp). The class given is biochemical. The settings on record: inhibitor pre-incubated with HYPDH for 5 min; reaction started by addition of 600 mM Hyp. The text has this: (§1) Despite the identification of the Hyp pathway in rat and bovine kidneys and livers over 50 years ago, very little is known about human HYPDH (also known as PRODH2 and hydroxyproline oxidase, HPOX, in the literature) (Miyata et al., Proc Natl Acad Sci USA 111, 14406-14411, 2014; Efron et al., New Engl J Med 272, 1299-1309; Pelkonen et al., New Engl J Med 283, 451-456, 1970). In an effort to biochemically and structurally characterize human HYPDH, we have evaluated numerous expression constructs (>15) in Escherichia coli with N- and C-terminal truncations. […] Only the constructs containing the residues 147-515 and 156-515 were >96% loaded with FAD+ and active.
T1 sequence (Q9UF12 71-439 limits assumed): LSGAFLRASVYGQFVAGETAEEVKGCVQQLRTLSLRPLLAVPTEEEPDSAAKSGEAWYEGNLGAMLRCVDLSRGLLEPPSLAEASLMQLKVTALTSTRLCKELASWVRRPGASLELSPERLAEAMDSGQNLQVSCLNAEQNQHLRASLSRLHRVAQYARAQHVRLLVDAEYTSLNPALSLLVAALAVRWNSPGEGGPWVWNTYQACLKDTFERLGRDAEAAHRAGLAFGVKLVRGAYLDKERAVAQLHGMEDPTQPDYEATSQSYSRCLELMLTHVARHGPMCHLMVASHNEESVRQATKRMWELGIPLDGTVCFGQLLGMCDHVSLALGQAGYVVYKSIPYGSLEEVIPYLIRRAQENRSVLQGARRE
Each inhibitor was pre-incubated with HYPDH for 5 min, and the reaction started by the addition of 600 mM Hyp. A range of concentrations was tested in order to determine the IC50 value. Table 1 lists the potency of the compounds.
`O=C(O)C1CCC(O)C1` (stereo not drawn) [Compound 5] showed an IC50 of 2100 ± 100 µM.
Regarding `O=C(O)C1CC[C@@H](O)C1` (stereo partly drawn) [Compound 6], the IC50 is greater than 10000 µM.
`O=C(O)C1CCCO1` (stereo not drawn) [Compound 2] registered an IC50 of 1500 ± 100 µM.
The compound `N[C@H]1CCC(C(=O)O)C1` (stereo partly drawn) [Compound 9] returned an IC50 of 630 ± 10 µM.
On the same count and under the same terms, the result for `O=C1CCC(C(=O)O)C1` (stereo not drawn) [Compound 10] reads 380 ± 10 µM; that for `O=C(O)C1CC[C@H](O)C1` (stereo partly drawn) [Compound 7], 600 ± 10 µM; that for `O=C1CC[C@@H](C(=O)O)C1` [Compound 11], 370 ± 10 µM.
On the same count and under the same terms, then `O=C(O)C[C@H]1CC[C@H](O)C1` [Compound 8], with 480 ± 10 µM.

The next experiment concerns the target T1, human HYPDH. The experiment is described as follows: Anaerobic titration of the FAD+ spectrum of recombinant HYPDH.
Settings: not given
The class given is binding.
Description: as §1
As to `O=C(O)C1CC(O)CN1` (stereo not drawn) [Hyp, Hydroxyproline], the Kd worked out at 125 µM.

For the origin of these results see patent US10562844B2, “HYPDH inhibitors and methods of use for the treatment of kidney stones” (Wake Forest University Health Sciences, priority 2015, dated 2020).
